In general, IC50 refers to the point on the concentration scale where inhibition reaches its midpoint. By Kd is commonly meant the concentration at which binding is half-saturated.

Like-named read-outs stand apart in the source and are kept apart here.

The test system of one assay is MCF-7 ADRr line. As to the kind of experiment: synergistic antiproliferative effect of a combination of ADR and silybin (isobolic method). The assay is classed as cell-based, human. The procedure: (§1) The determination of the binding to the estrogen receptor has been carried out on cells of ovary tumor or of other organ tumors, cultured in monolayers using as medium the Dulbecco Modified Medium added with calf serum and with 200 unities/ml of penicillin. The cells used for the tests have been trypsinated every week and placed on a plate at a […] density and incubated at 37° C. under air atmosphere containing 5% CO2 and humidity. […] After 24 hours the medium is substituted with fresh medium and the flavanolignanes dissolved in absolute ethanol are added. […] The treatment described above is repeated at 24 hour intervals during the 72 hours of the test time. The inhibition of the cell proliferation is evaluated by direct count of the cells, comparing the growth of the controls versus that of the treated samples.
(§2) The inhibition on cell proliferation is evaluated by direct count of the cells, comparing the growth of controls versus that of the treated ones.
(§3) In order to verify wether such an effect of a combination of silybin with adriamycin or cisplatin is due to a synergistic or an additive action, the data have been analyzed with the isobolic method by Berenbau (Adv. Cancer Res., 25, 269, 1981).

The test system of assay [1] is A2780 WT cells. Kind of assay: antiproliferative effect on A2780 WT ovary carcinoma cells (direct cell count). The class given is cell-based, human. Particulars: for IC50: Homo sapiens. The procedure:
as §1, with “samples. The inhibition on cell proliferation is evaluated by direct count of the cells, comparing the growth of controls versus that of the treated ones. […] The results are the average of two experiments carried out in triplicated.” for “samples.”

The next assay relates to A2780 CIS cells. As to the kind of experiment: antiproliferative effect on A2780 CIS (CIS resistant) ovary carcinoma cells. The assay is classed as cell-based. Particulars: Homo sapiens, A2780cis, ovary ca CIS resistant, exposure 72 h. The procedure: (§4) The determination of the binding to the estrogen receptor has been carried out on cells of ovary tumor or of other organ tumors, cultured in monolayers using as medium the Dulbecco Modified Medium added with calf serum and with 200 unities/ml of penicillin. The cells used for the tests have been trypsinated every week and placed on a plate at a […] density and incubated at 37° C. under air atmosphere containing 5% CO2 and humidity. […] After 24 hours the medium is substituted with fresh medium and the flavanolignanes dissolved in absolute ethanol are added. The controls are treated in the same experimental conditions only with the vehicle in the absence of the active ingredient. The treatment described above is repeated at 24 hour intervals during the 72 hours of the test time. The inhibition of the cell proliferation is evaluated by direct count of the cells, comparing the growth of the controls versus that of the treated samples.
as §2

In a further assay the test system is OVCA-433 cells. Kind of assay: antiproliferative effect on OVCA-433 ovary carcinoma cells. The assay is classed as cell-based. Particulars: Homo sapiens, OVCA433; OVCA-433, ovary ca, exposure 72 h. How it is done: as §4, §2
The next assay relates to MCF-7 ADRr cells. As to the kind of experiment: antiproliferative effect on MCF-7 ADRr (ADR resistant) breast carcinoma cells. The class given is cell-based. The settings on record: Homo sapiens, MCF7, breast ca ADR resistant, exposure 72 h. The procedure: as §4, §2
The subject of assay [2] is different stabilized cell lines, including MCF-7 ADRr, A2780 CIS. Kind of assay: antiproliferative effect on different stabilized cell lines (overall statement). The assay is classed as cell-based, human.
Text: In order to verify the antiproliferative effect of flavanolignanes, the growth curves of different stabilized cell lines deriving from various human tumors have been examined in the presence of the compounds and their capability to interact with the Type II EBS in ovary carcinoma samples has been evaluated.
as §4, §2

Assay [3] relates to A2780 WT cells. Kind of assay: cytofluorimetric analysis of cell cycle phase distribution. The assay is classed as cell-based, human. The procedure: *A2780 WT cells were cultured for 2 days with or without 10 μM silybin.
For a further assay, the system named is A2780 WT cell line. Kind of assay: synergistic antiproliferative effect of the CIS-silybin combination (isobolic method). The assay is classed as cell-based, human. The procedure:
as §4, §2
As reported in Table III, when silybin is used in combination with CIS, a synergistic inhibition effect on the growth is observed, compared with corresponding doses of the medicaments used alone.
as §3

The test system of assay [4] is human tumor primary cultures. Kind of assay: antiproliferative activity on human tumor primary cultures. The class given is cell-based. An excerpt: A plurality of the tested flavanolignanes have a similar behaviour. In Table V, the data relating to silybin, silidianin, silymarin and dehydrosilybin are reported. The diastereomeric forms of silybin and isosilybin are as well active in these tests.

The subject of assay [5] is tumors implanted in the nude athymic mouse. As to the kind of experiment: inhibition of growth of tumors implanted in nude athymic mouse. The settings on record: test not specified (follows in vivo mouse and man results). The procedure:
Moreover, the above flavanolignanes were evidenced to inhibit in vivo the cell proliferation, by measuring the size of tumors implanted in the nude athymic mouse according to the conventional conditions of literature. The treatment of the animals at doses from 1 to 100 mg/Kg evidenced a marked regression of the studied tumors until their disappearance in a high percentage of individuals.
In the in vitro tests flavanolignanes have been used as such, whereas in in vivo tests the complexes thereof with phospholipids, described in EP-A-0209038, have been used.

In assay [6] the target is estrogen receptors of type II. The settings on record: read-out: dissociation affinity constant KD; cited from earlier work.
The test system of the next assay is human leukemia cells. Particulars: cited from earlier work.
The subject of another assay is other cell lines. The settings on record: cited from earlier work.
The mark [7] stands for this setting: isoeffective with ADR 0.1 μg/ml + silybin 0.1 μM (80% of control).
The mark [8] stands for this setting: isoeffective with ADR 0.5 μg/ml + silybin 0.1 μM (76% of control).
The mark [9] stands for this setting: isoeffective with ADR 1 μg/ml + silybin 0.1 μM (69% of control).
Where [10] appears, read: isoeffective with ADR 2.5 μg/ml + silybin 0.1 μM (62% of control).
[11] abbreviates: isoeffective with ADR 5 μg/ml + silybin 0.1 μM (47% of control).
Where [12] appears, read: isoeffective with ADR 10 μg/ml + silybin 0.1 μM (39% of control).
[13] abbreviates: A2780 WT, ovary ca, exposure 72 h, read-out: IC50.
Where [14] appears, read: isoeffective with CIS 0.1 μg/ml + silybin 0.1 μM (67% control).
Setting [15] is: isoeffective with CIS 0.1 μg/ml + silybin 1 μM (54% control).
Setting [16] is: isoeffective with CIS 0.25 μg/ml + silybin 0.1 μM (58% control).
[17] abbreviates: isoeffective with CIS 0.25 μg/ml + silybin 1 μM (35% control).
The mark [18] stands for this setting: isoeffective with CIS 0.5 μg/ml + silybin 0.1 μM (37% control).
Setting [19] is: isoeffective with CIS 0.5 μg/ml + silybin 1 μM (25% control).
Where [20] appears, read: isoeffective with CIS 1 μg/ml + silybin 0.1 μM (18% control).
The mark [21] stands for this setting: isoeffective with CIS 1 μg/ml + silybin 1 μM (12% control).

With `COc1cccc2c1C(=O)c1c(O)c3c(c(O)c1C2=O)C[C@@](O)(C(=O)CO)C[C@@H]3O[C@H]1C[C@H](N)[C@H](O)[C@H](C)O1` [ADR, adriamycin, reference compound], the “ADR (isoeffective dose alone)” value in the assay on MCF-7 ADRr line (setting [7]) is listed as 0.6 μM/ml; in the assay with MCF-7 ADRr line (setting [8]), 0.9 μM/ml; with MCF-7 ADRr line (setting [9]), 2.5 μM/ml; in the assay with MCF-7 ADRr line (setting [10]), 5.4 μM/ml; in the assay on MCF-7 ADRr line (setting [11]), > 10 μM/ml; in the assay with MCF-7 ADRr line (setting [12]) it was > 10 μM/ml.
For `COc1cc(C2Oc3cc(C4Oc5cc(O)cc(O)c5C(=O)C4O)ccc3OC2CO)ccc1O` (stereo not shown) [silybin], the IC50 in the assay on A2780 WT cells [1] (setting [13]) was 12 µM; with A2780 CIS cells, 14 µM; in the assay on OVCA-433 cells it was 4.8 µM; with MCF-7 ADRr cells, 24 µM; in [2] (Homo sapiens, different cell lines, silybin 0.01 μM to 20 μM, read-out: IC50 (range over cell lines)), 4.8 to 24 µM. Also, the “antiproliferative effect” value in assay [2] (0.01 μM to 20 μM, FIG. 1 and Table I) was “dose-dependent antiproliferative effect”. The “cells in phase G2/M” value in the assay on A2780 WT cells [3] (10 μM silybin, 2 days, control 10.3) came to 8.6%. For the same molecule, the “cells in phase S” value with A2780 WT cells [3] (10 μM silybin, 2 days, control 31) was 20.9%. Also, the “cells in phase G0/G1” value in the assay on A2780 WT cells [3] (10 μM silybin, 2 days, control 58.7) amounted to 70.5%. For the same molecule, in the assay with A2780 WT cells [3] (A2780 WT), the “effect on percentage of phase G0/G1 cells” value is recorded as “mild increase”. Also, in the assay with A2780 WT cells [3] (A2780 WT), the “effect on percentage of phase S cells” value is “decrease in the percentage of phase S cells”. For the same molecule, the “Silybin (isoeffective dose alone)” value is 2.9 µM in the assay with A2780 WT cell line (setting [14]); 8.2 µM in the assay on A2780 WT cell line (setting [15]); 6.4 µM in the assay with A2780 WT cell line (setting [16]); > 50 µM in the assay with A2780 WT cell line (setting [17]); > 50 µM with A2780 WT cell line (setting [18]); > 50 µM in the assay on A2780 WT cell line (setting [19]). Also, the “Silybin (isoeffective dose alone)” value with A2780 WT cell line (setting [20]) was > 50 µM; in the assay on A2780 WT cell line (setting [21]), > 50 µM; in the assay with MCF-7 ADRr line (setting [7]) it was 0.1 µM; in the assay with MCF-7 ADRr line (setting [8]), 0.36 µM; in the assay with MCF-7 ADRr line (setting [9]) it was 2.2 µM; with MCF-7 ADRr line (setting [10]) it was 7 µM. In addition, the “Silybin (isoeffective dose alone)” value with MCF-7 ADRr line (setting [11]) is 35 µM; in the assay with MCF-7 ADRr line (setting [12]), > 50 µM. Also, the “antiproliferative activity” value in assay [4] is on record as “antiproliferative activity”.
Regarding `COc1cc(C2C3C=C([C@H]4Oc5cc(O)cc(O)c5C(=O)[C@@H]4O)C4C2COC4(O)C3=O)ccc1O` (stereo partly shown) [silidianin], the IC50 in the assay with A2780 WT cells [1] (setting [13]) was 12 µM. Besides, in assay [5], the “activity” value is given as “particularly marked activity”.
With `COc1cc(C2Oc3ccc(C4Oc5cc(O)cc(O)c5C(=O)C4O)cc3OC2CO)ccc1O` (stereo not shown) [isosilybin], the “activity in these tests” value in the assay with A2780 WT cells [1] (diastereomeric forms, growth tests of Table V) is reported as “active”.
Regarding `N.N.[Cl][Pt][Cl]` [CIS, cisplatin, reference compound], the “CIS (isoeffective dose alone)” value stood at 0.23 µg/mL in the assay with A2780 WT cell line (setting [14]); 0.34 µg/mL in the assay on A2780 WT cell line (setting [15]); 0.31 µg/mL in the assay on A2780 WT cell line (setting [16]); 0.56 µg/mL in the assay on A2780 WT cell line (setting [17]); 0.54 µg/mL with A2780 WT cell line (setting [18]); 0.82 µg/mL in the assay on A2780 WT cell line (setting [19]). Moreover, the “CIS (isoeffective dose alone)” value in the assay on A2780 WT cell line (setting [20]) and in the assay with A2780 WT cell line (setting [21]) was > 1 µg/mL throughout.
`C[C@]12CC[C@@H]3c4ccc(O)cc4CC[C@H]3[C@@H]1CC[C@@H]2O` [estradiol]: in assay [6], the Kd is 10 to 20 nM.
Turning to `O=c1c(O)c(-c2ccc(O)c(O)c2)oc2cc(O)cc(O)c12` [quercetin], the “inhibiting activity on proliferation” value in the assay with human leukemia cells and in the assay on other cell lines (other cell lines) was “some inhibiting activity” each time. Further, in the assay with other cell lines, the “activity with the usual chemotherapeuticals” value is listed as “synergistic activity”.
In the assay with A2780 WT cells [1] (A2780, 72 h), `COc1cc(C2Oc3cc(-c4oc5cc(O)cc(O)c5c(=O)c4O)ccc3OC2CO)ccc1O` (stereo not shown) [dehydrosilybin] had an IC50 of 2.88 µM. Further, the “activity” value in assay [5] is on record as “particularly marked activity”.
